Here are results for 1 molecule from US12599625B2, “Treatment of ARDS and other conditions caused by acutely elevated cytokine levels and post ARDS chronic cytokine production using inhaled anesthetics” (priority 2021, dated 2026).

The subject of this assay is substance P. Nature of the assay: Clinical observation: relief of symptoms caused by acute and chronic excessive substance P. Format: in vivo, human.

On to `[N-]=[N+]=O` [nitrous oxide], for which the “relief of symptoms of COVID-19 and asthma” value (about 20 minutes of nitrous oxide every about 4-6 hours) is “may be relieved”. Besides, the “relief of symptoms of COPD and asthma” value (nitrous oxide every about 4-6 hours) is given as “ray be relived”.
